Patent publication US9464308B2, “Method for transcriptional amplification of nucleic acids combining steps of different temperatures” (priority 2011, dated 2016)
Where two headings read alike, the source gives them in different places.

Columns and labels:
[1] = target: T1, T7 RNA polymerase (Escherichia phage T7, UniProt P00573); experiment: Thermal denaturation of T7 RNA polymerase (T7 Tm) by UV spectrophotometry; type: physicochemical; conditions: for ΔTm: T7 RNA polymerase at 0.05 mg/ml, PBS 150 mM pH 7.5, versus control without additive (T7 Tm 48.5° C.), Sorbitol 1M, Sucrose 1M, Lactose 0.35M, Raffmose 0.085M, D-Turanose 0.15M; for denaturation temperature of the enzyme (in words): heating T7 RNA polymerase in the presence of the additive
T1 construct: purchased bioMérieux, Marcy l'Etoile, France
T1 sequence (P00573 whole entry): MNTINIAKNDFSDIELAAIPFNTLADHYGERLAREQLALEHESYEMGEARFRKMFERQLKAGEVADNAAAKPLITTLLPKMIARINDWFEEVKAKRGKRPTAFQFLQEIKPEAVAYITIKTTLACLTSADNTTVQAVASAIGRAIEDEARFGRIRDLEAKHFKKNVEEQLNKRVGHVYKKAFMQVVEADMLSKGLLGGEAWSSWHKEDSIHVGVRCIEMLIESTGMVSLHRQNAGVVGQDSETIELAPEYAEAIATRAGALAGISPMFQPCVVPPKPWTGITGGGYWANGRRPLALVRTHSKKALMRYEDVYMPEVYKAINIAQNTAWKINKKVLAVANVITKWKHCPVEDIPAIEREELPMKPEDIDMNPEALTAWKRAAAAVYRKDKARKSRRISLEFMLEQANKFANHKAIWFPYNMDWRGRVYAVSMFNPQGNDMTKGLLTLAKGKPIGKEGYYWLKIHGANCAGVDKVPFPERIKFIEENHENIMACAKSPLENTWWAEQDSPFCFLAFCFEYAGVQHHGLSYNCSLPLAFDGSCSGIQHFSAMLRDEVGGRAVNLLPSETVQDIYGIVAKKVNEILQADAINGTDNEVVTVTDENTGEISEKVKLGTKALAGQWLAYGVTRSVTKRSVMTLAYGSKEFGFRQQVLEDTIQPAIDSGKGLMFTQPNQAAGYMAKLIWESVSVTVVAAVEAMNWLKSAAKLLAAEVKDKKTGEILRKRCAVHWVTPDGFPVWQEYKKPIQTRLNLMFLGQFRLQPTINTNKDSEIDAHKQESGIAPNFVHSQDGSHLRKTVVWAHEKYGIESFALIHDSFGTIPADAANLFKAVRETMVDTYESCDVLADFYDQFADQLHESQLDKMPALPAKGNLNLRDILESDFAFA
Description: T7 RNA polymerase was chosen as model enzyme since it is the most sensitive to thermal denaturation; the T7 Tm without additive is 48.5° C.
A UV spectrophotometry technique is used to measure the T7 Tm values. The change in the absorbance of the protein at λ=280 nm as a function of temperature is measured. When the enzyme is heated, the solution becomes cloudy, and aggregates form which correspond to the denatured form. The Tm corresponds to the temperature for which there is 50% of native form and 50% of denatured form (first derivative of the curve absorbance=f(temperature)).
In a polypropylene flask, 4 ml of 300 mM PBS phosphate buffer (Aldrich P-4417, St Quentin Fallavier, France) are mixed with 12μl of T7 RNA polymerase enzyme (bioMérieux, Marcy l'Etoile, France) at 17 mg/ml, i.e. a final protein concentration of 0.05 mg/ml. 500 μl of T7 RNA polymerase solution at 0.05 mg/ml and 500 μl of a concentrated solution of additives (Aldrich, St Quentin Fallavier, France) or of 300 mM PBS for the control are then placed in a quartz cuvette for UV spectrophotometry. After homogenization, the change in absorbance at λ=280 nm is measured as a function of temperature, between 30 and 65° C. at 1° C./min, in order to determine the T7 Tm as previously described (Cary UV spectrophotometer, Varian, Les Ulis, France).

[2] = target: T1, T7 RNA polymerase; experiment: Thermostability (T1/2) at 46° C. of T7 RNA polymerase activity; type: biochemical; conditions: environment specific to NASBA, sorbitol 1.48 M
Description: In this example, the values of T1/2 of T7 RNA polymerase are determined in the presence or absence of polyols. A description of the measurement method is given below, as are the various reagents used.
Mix buffers B, C and D according to the following proportions with the following Nuclisens™ HIV-1 2.0 reagents (ref.: 285033, bioMérieux, Marcy l'Etoile, France) (for eight reactions): • 36.08 μl buffer A • 6.32 μl buffer B • 25.36 μl buffer C • 173.6 μl buffer D • eight “Nuclisens™ HIV-1 2.0 accusphere reagent” • 960 μl of “Nuclisens™ HIV-1 2.0 diluent reagent”. […]
• 1. The enzymes to be evaluated are diluted in such a way as to have a volumetric activity of 109 kU/ml. • 2. A volume of 20 μl of the enzyme to be evaluated is diluted in 840 μl of solution W1. • 3. 114 μl of the compound to be evaluated are then added to 193.5 μl of enzymatic mix described in point 2 above. • 4. […] 20 μl of solution S are added to 5 n1 of this preincubated mixture in order to measure the rate of increase in fluorescence between 5 and 10 minutes, associated with the residual activity of the enzyme. • 6. […]

[3] = tested on: HIV-1 type B transcript; experiment: NASBA HIV-1 2.0 amplification test at 46° C., functional screening of thermostabilizing compounds; type: biochemical; conditions: 7.5 cps/reaction HIV-1B transcript, lactose 0.21 M, sorbitol 1.2 M, sucrose 0.6 M
Description: The FIG. 1 represent the functional screening of thermostabilizing compounds during NASBA amplifications at 46° C. in the presence of 7.5 cps/reaction of HIV-1B transcript (seven replicas per screening), with in:
A set of compounds with thermostabilizing properties or assumed to have such properties was evaluated in a NASBA HIV-1 2.0 amplification test on a Nuclisens EasyQ™ amplification platform (bioMérieux, Marcy l'Etoile, France) according to the supplier's recommendations. 5 cps to 30 cps of an HIV-1 type B transcript were used as target in each reaction in the presence or absence of the compound to be evaluated.
The obtaining of an amplification in the presence of the compound at a temperature of 46° C. makes it possible to validate the compound as compatible and thermostabilizing for the NASBA reaction.

[4] = tested on: HIV-1 type B transcript; experiment: Sensitivity of NASBA detection at 46° C. without target denaturation phase; type: biochemical; conditions: HIV-1 type B transcript at 5 cps/test, no target denaturation phase, N=24
Description: FIG. 4 gives the measurement of the sensitivity (%) obtained in the presence of various thermostabilizing compounds during an HIV-1 type B NASBA amplification at 5 cps/test and without target denaturation phase (N=24).
The objective of this is to simplify the method by virtue of the simultaneous addition of the targets to the enzyme and amplification reagent mixes.
A Nuclisens™ HIV-1 2.0 amplification kit (ref.: 285033, bioMérieux, Marcy l'Etoile, France) was used to carry out the amplification experiments in the presence of trehalose, sucrose or sorbitol at the detection limit with an HIV-1 type B transcript at 5 cps/test. Each amplification is replicated 24 times in order to estimate the sensitivity of the test in the presence of thermostabilizing compounds at 46° C.
The sensitivity is expressed as percentage of positive signals determined by the EasyQ™ analysis system, relative to the total number of replicates.

[5] = target: T1, T7 RNA polymerase; experiment: Maximum preincubation temperature preserving T7 RNA polymerase activity (3 min preincubation); type: biochemical; conditions: 1.4 M sorbitol
Description: FIG. 2 describes the residual activity (%) of T7 RNA polymerase after 3 minutes of preincubation at various temperatures and in the presence of various thermostabilizing compounds.
In this example, the maximum temperature that the T7 RNA polymerase could withstand for a preincubation of 3 minutes in the presence of thermostabilizing compounds is determined.
This step can be likened to a target predenaturation or preincubation phase. The protocol used in this example is similar to that of example 2, with the exception of the fact that the temperatures are variable and that the preincubation time was fixed at 3 minutes.

[6] = tested on: RNAse H; experiment: Residual RNAse H activity after preincubation at various temperatures, with or without 0.4 M trehalose; type: biochemical; conditions: 25 minutes of preincubation at various temperatures
Description: FIG. 3B describes the residual activity of RNAse H after 25 minutes of preincubation at various temperatures, with or without 0.4 M trehalose.
(§1) Description of the method for measuring the T7 RNA polymerase, RNAse H and AMV-RT activities for example 5: • 1. The T7 RNA polymerase, RNAse H and AMV-RT enzymes are used at volumetric activities of 109 kU/ml, 1 kU/ml and 25 kU/ml respectively. • 2. The T7 RNA polymerase, RNAse H and AMV-RT enzymes are diluted in the solution W1 of example 3 according to the ratios 1/43, 2/191 and 2/27 respectively, in order to mimic the physicochemical environment of the NASBA reaction. • 3. […] The residual activity of each of the T7 RNA polymerase, RNAse H or AMV-RT activities is then measured by adding 5 μl of enzymatic solution to 20 μl of solution S containing the reagents corresponding to each of the activities measured. […]
(§2) • 6. The residual activity of each mutant is expressed as percentage of the fraction of enzyme having not been preincubated and corresponding to 100% activity according to the following calculation: • ρN=slope obtained between 5 and 10 min for the enzyme not preincubated, • ρT=slope obtained between 5 and 10 min for the enzyme preincubated at various temperatures, with or without the presence of the polyol to be studied, and • percentage relative activity=% (ρT/ρN).

[7] = target: T1, T7 RNA polymerase; experiment: Residual T7 RNA polymerase activity after preincubation at various temperatures, with or without 0.4 M trehalose; type: biochemical; conditions: 15 minutes of preincubation at various temperatures
Description: FIG. 3A describes the residual activity of T7 RNA polymerase after 15 minutes of preincubation at various temperatures, with or without 0.4 M trehalose.
as §1, §2

[8] = tested on: AMV-RT; experiment: Residual AMV-RT activity after preincubation at various temperatures, with or without 0.4 M trehalose; type: biochemical; conditions: 25 minutes of preincubation at various temperatures
Description: FIG. 3C describes the residual activity of AMV-RT after 25 minutes of preincubation at various temperatures, with or without 0.4 M trehalose.
as §1, §2

[9] = 3 minutes at 48° C., 0.7 M sucrose, 0.4 M trehalose

Compound | ΔTm ([1]; read-out: ΔTm) [°C] | denaturation temperature of the enzyme (in words) [1] | thermostabilizing effect on the T7 RNA polymerase activity (in words) [2] | NASBA amplification at 46° C. (positive signals out of seven replicas) [3] | T7 RNA polymerase activity preserved [5, 9] [%] | further results
OC[C@H]1O[C@@H](O[C@H]2[C@H](O)[C@@H](O)C(O)O[C@@H]2CO)[C@H](O)[C@@H](O)[C@H]1O (stereo partly drawn) [Lactose, lactose] | 5.5 | very significantly increase the denaturation temperature of the enzyme | weak thermostabilizing power | at least four positive signals out of seven replicas |  | 
OC[C@@H](O)[C@@H](O)[C@H](O)[C@@H](O)CO [Sorbitol, sorbitol] | 0.9 | very significantly increase the denaturation temperature of the enzyme | greatest thermostabilizing effect | at least four positive signals out of seven replicas | 100 | sensitivity (percentage of positive signals relative to total replicates) [4]: 100%; T7 RNA polymerase activity preserved ([5]; 3 minutes at 49° C.): 100%
OC[C@H]1O[C@H](OC[C@H]2O[C@H](O[C@]3(CO)O[C@H](CO)[C@@H](O)[C@@H]3O)[C@H](O)[C@@H](O)[C@@H]2O)[C@H](O)[C@@H](O)[C@H]1O [Raffmose, raffinose] | 0.5 |  |  |  |  | 
OC[C@H]1O[C@@](CO)(O[C@H]2O[C@H](CO)[C@@H](O)[C@H](O)[C@H]2O)[C@@H](O)[C@@H]1O [Sucrose, sucrose] | 5.8 | very significantly increase the denaturation temperature of the enzyme |  | at least four positive signals out of seven replicas | 100 | 
O=C(CO)[C@@H](O[C@H]1O[C@H](CO)[C@@H](O)[C@H](O)[C@H]1O)[C@H](O)[C@H](O)CO [D-Turanose] |  |  |  |  |  | ΔTm [1]: −4.4 °C
OC[C@H]1O[C@H](O[C@H]2O[C@H](CO)[C@@H](O)[C@H](O)[C@H]2O)[C@H](O)[C@@H](O)[C@@H]1O [Trehalose, trehalose] |  |  |  |  | 100 | thermostabilizing effect on RNAse H activity (in words) [6]: thermostabilizing effect; thermostability of T7 RNA polymerase (in words) [7]: makes it possible to render it more thermostable; thermostabilizing effect on AMV-RT activity (in words) [8]: thermostabilizing effect
